Assay results from ChEMBL document CHEMBL6083185, “Unraveling the future: Innovative design strategies and emerging challenges in HER2-targeted tyrosine kinase inhibitors for cancer therapy” (Eur J Med Chem, 2024).

Columns and labels:
[1] = target: T1, Receptor tyrosine-protein kinase erbB-2 (Homo sapiens, UniProt P04626); experiment: Inhibition of HER2 (unknown origin)
BaF3 = experiment: Antiproliferative activity against mouse BaF3 cells harboring HER2 YVMA mutant measured for 24 hrs by CellTiter-Glo assay; assay type: functional, cell-based; settings: BaF3, 24 h
[2] = Half life in human; assay type: ADME
[3] = target: T1, Receptor tyrosine-protein kinase erbB-2; experiment: Inhibition of flag-tagged HER2 (unknown origin) extracted from Escherichia coli
BT-474 [4] = experiment: Antiproliferative activity against human BT-474 cells; assay type: functional, cell-based
[5] = target: T2, Epidermal growth factor receptor (Homo sapiens, UniProt P00533)
Description: Inhibition of EGFR (unknown origin)

[6] = Antiproliferative activity against human NCI-H1975 cells harboring EGFR L858R mutant assessed as reduction in cell viability measured after 72 hrs by MTT assay; assay type: functional, cell-based; settings: NCI-H1975, 72 h
[7] = target: T1, Receptor tyrosine-protein kinase erbB-2; experiment: Inhibition of wild-type HER2 phosphorylation in human BT-474 cells; assay type: cell-based
[8] = target: T2, Epidermal growth factor receptor; experiment: Inhibition of human wild type EGFR using PolyEY as substrate pre-incubated for 30 mins followed by substrate addition and measured for 60 mins by spectrophotometric analysis
[9] = target: T1, Receptor tyrosine-protein kinase erbB-2; experiment: Inhibition of human wild type HER2 using PolyEY as substrate pre-incubated for 30 mins followed by substrate addition and measured for 60 mins by spectrophotometric analysis
NCI-N87 [10] = experiment: Antiproliferative activity against human NCI-N87 cells; assay type: functional, cell-based
[11] = Clearance in rat; assay type: ADME; settings: in vivo
SK-BR-3 = experiment: Antiproliferative activity against human SK-BR-3 cells assessed as reduction in cell growth incubated for 72 hrs by MTT assay; assay type: functional, cell-based; settings: SK-BR-3, 72 h
NCI-N87 [12] = experiment: Antiproliferative activity against human NCI-N87 cells assessed as cell growth measured for 48 hrs by MTT assay; assay type: functional, cell-based; settings: NCI-N87, 48 h
[13] = Metabolic stability in human liver microsomes assessed as half life incubated for 60 mins by LC-MS/MS analysis; assay type: ADME, Microsome
BT-474 [14] = experiment: Antiproliferative activity against human BT-474 cells assessed as reduction in cell growth; assay type: functional, cell-based
[15] = Metabolic stability in human liver microsomes assessed as half life; assay type: ADME, Microsome
[16] = target: Receptor tyrosine-protein kinase erbB-2 (Homo sapiens, UniProt P04626, D769Y); experiment: Inhibition of HER2 D769Y mutant (unknown origin)
[17] = target: Receptor tyrosine-protein kinase erbB-2 (Homo sapiens, UniProt P04626, D769H); experiment: Inhibition of HER2 D769H mutant (unknown origin)
Chain of Receptor tyrosine-protein kinase erbB-2 (Homo sapiens, UniProt P04626, D769H) (P04626 23-1255 D769H limits assumed): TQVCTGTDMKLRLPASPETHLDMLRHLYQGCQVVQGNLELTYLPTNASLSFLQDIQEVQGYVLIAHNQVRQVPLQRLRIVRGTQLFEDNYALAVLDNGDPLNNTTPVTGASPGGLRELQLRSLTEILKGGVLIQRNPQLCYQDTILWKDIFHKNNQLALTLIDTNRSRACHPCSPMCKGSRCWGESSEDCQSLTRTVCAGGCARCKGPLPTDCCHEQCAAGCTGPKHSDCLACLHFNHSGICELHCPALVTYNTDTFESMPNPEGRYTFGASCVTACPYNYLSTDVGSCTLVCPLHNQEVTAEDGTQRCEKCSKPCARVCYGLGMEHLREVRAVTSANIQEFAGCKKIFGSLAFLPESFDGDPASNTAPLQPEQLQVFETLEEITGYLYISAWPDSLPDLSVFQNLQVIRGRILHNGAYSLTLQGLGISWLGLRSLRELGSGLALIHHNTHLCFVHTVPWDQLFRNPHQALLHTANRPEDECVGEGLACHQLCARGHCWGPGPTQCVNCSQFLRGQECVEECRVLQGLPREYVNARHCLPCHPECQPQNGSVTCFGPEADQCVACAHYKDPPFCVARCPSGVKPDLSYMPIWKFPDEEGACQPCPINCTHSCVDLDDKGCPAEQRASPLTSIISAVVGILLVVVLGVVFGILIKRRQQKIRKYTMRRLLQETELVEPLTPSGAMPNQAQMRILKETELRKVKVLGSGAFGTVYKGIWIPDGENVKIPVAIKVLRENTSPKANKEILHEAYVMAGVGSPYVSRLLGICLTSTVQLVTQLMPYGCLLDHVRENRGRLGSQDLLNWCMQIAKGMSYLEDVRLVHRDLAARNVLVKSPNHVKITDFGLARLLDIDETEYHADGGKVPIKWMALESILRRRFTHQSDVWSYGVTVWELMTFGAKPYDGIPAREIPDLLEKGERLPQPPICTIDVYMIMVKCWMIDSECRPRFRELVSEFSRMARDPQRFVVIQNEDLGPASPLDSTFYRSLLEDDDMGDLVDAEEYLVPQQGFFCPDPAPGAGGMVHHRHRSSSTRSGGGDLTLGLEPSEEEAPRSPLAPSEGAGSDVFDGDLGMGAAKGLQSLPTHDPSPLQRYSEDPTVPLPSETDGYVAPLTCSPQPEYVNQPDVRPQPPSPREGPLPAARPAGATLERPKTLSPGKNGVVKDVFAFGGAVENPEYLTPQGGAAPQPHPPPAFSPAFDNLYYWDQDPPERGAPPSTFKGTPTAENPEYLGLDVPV

T1 sequence (P04626 whole entry): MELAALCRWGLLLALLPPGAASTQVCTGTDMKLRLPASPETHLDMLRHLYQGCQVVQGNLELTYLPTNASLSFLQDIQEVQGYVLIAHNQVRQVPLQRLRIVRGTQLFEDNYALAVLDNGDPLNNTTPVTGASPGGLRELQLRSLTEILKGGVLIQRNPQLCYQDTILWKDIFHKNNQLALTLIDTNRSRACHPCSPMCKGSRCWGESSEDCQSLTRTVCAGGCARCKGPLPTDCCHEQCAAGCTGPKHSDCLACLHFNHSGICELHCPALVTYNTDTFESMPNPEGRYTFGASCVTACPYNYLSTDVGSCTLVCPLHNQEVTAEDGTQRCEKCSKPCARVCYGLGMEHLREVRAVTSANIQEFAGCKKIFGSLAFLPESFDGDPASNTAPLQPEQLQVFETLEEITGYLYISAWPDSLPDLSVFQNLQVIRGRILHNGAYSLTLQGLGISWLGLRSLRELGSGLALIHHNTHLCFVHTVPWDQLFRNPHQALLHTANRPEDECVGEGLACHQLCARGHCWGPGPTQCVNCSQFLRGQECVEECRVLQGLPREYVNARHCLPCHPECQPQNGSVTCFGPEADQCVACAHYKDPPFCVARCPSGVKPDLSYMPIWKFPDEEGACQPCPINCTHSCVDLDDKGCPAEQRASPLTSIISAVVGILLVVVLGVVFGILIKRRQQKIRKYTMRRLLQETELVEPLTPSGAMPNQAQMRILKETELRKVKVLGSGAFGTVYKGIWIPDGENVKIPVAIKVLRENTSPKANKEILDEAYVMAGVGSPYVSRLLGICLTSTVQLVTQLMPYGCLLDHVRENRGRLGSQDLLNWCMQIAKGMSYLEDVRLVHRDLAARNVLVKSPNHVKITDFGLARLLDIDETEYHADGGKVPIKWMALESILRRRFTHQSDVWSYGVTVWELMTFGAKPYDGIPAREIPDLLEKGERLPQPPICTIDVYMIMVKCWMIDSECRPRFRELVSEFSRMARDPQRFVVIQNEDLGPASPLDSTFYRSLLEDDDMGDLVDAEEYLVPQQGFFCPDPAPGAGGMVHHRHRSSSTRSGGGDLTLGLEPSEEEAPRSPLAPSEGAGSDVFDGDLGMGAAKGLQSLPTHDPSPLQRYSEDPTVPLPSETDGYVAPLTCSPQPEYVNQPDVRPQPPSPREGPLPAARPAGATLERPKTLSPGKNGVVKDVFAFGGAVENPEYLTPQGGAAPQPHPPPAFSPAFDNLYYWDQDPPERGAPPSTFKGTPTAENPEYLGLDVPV
T2 sequence (P00533 whole entry): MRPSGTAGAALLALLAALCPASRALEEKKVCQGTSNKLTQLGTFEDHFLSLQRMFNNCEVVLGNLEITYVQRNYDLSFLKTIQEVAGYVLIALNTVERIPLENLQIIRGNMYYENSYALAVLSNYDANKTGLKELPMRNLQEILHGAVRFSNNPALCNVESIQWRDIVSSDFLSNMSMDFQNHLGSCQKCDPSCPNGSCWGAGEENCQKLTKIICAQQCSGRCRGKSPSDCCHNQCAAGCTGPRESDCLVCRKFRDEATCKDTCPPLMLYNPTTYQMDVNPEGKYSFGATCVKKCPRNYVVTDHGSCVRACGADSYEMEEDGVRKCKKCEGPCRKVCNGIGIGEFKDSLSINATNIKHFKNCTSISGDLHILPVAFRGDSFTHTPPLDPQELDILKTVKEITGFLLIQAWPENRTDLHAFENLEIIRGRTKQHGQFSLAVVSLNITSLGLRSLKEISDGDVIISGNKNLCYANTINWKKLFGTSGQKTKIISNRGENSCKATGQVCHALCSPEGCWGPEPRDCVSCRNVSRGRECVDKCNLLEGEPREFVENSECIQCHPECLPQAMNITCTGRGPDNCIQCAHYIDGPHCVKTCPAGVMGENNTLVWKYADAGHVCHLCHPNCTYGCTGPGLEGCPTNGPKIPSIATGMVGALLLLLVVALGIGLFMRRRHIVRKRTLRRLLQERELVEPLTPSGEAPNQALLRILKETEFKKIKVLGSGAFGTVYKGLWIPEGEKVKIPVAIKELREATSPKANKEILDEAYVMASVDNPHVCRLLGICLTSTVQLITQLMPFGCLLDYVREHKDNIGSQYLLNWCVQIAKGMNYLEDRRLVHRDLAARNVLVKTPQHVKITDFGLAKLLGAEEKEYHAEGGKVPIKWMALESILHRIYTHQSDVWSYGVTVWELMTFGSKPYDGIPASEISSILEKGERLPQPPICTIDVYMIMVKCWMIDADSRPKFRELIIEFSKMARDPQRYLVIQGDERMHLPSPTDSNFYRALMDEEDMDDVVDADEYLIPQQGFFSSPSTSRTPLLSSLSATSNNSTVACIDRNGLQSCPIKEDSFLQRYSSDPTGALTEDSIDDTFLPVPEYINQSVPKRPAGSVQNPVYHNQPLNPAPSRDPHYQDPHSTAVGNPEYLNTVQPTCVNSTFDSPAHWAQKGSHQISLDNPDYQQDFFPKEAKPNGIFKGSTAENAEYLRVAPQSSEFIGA
Chain of Receptor tyrosine-protein kinase erbB-2 (Homo sapiens, UniProt P04626, D769Y) (P04626 23-1255 D769Y limits assumed): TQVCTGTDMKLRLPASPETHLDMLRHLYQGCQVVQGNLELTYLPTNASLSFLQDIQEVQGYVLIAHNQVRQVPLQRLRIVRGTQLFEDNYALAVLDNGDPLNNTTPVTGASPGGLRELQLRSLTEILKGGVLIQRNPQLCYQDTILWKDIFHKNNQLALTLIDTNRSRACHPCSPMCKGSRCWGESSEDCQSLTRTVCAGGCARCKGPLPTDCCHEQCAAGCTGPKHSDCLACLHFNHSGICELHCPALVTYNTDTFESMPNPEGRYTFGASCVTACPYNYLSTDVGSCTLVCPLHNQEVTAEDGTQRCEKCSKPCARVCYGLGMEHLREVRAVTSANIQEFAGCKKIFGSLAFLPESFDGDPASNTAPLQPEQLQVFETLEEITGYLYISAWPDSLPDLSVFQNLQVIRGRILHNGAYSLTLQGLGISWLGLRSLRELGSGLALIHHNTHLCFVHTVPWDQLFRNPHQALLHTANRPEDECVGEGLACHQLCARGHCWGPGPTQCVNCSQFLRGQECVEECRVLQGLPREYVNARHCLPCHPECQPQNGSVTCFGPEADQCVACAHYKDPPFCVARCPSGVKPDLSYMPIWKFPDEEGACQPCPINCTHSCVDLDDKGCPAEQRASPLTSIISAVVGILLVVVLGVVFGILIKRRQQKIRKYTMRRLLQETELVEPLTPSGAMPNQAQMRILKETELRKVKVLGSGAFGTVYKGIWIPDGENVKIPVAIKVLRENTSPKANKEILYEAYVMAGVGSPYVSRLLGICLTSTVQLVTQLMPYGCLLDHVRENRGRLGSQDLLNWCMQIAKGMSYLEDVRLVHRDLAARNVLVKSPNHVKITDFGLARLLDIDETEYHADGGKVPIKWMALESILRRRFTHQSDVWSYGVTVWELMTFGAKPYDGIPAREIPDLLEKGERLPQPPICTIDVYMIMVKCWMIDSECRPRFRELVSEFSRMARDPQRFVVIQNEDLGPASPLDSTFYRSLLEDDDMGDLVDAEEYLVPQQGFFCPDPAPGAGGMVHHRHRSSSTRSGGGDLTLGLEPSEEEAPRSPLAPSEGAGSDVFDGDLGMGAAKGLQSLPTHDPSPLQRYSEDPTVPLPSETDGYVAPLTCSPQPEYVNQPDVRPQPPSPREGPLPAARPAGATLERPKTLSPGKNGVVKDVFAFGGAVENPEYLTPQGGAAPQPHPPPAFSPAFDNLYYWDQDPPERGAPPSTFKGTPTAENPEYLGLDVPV

SMILES | IC50 [1] | IC50 [5] | further results
C=CC(=O)Nc1cccc(-c2c[nH]c3ncnc(Nc4ccc(OCc5ccccn5)c(Cl)c4)c23)c1 |  |  | IC50 (BaF3): 17 nM
CN1CCN(CCCOc2ccc3ncnc(Nc4ccc(OCc5cccc(F)c5)c(Cl)c4)c3c2)CC1 |  |  | half-life [2]: 0.957 h; IC50 [3]: 12 nM; IC50 (BT-474 [4]): 80 nM
C=CC(=O)N1CCN(C(=O)Oc2cc3c(Nc4cccc(Cl)c4F)ncnc3cc2OC)[C@H](C)C1 | 152 nM |  | 
C=CC(=O)N1CCC[C@@H](n2nc(C(=O)Nc3ccc(CC(=O)N(C)C)c(C)c3C)c3c(N)ncnc32)C1 | 16.4 nM | 65 nM | 
CCOCCOc1cc2ncnc(Nc3ccc(OCc4ccccn4)c(Cl)c3)c2cc1NC(=O)/C=C/CN(C)C |  | 1.01 nM | IC50 [6]: 60.6 nM
Cc1cc(Nc2ncnc3cccc(O[C@H]4CCN(C)CC4(F)F)c23)ccc1Oc1ccn2ncnc2c1 |  |  | IC50 [7]: 5.8 nM
C=CC(=O)N1CCN(c2ncc3ncnc(Nc4ccc(Oc5ccn6ncnc6c5)c(C)c4)c3n2)CC1 |  |  | IC50 [8]: 2200 nM; IC50 (BaF3): 5.8 nM; IC50 [9]: 5.8 nM
COc1cc2ncnc(Nc3ccc(Oc4cccc5ccc(C)nc45)c(C)c3)c2cc1OC | 14 nM | 11 nM | 
COCCOc1cc2ncnc(Nc3ccc(Oc4cccc5ccc(C)nc45)c(C)c3)c2cc1OCCOC | 12 nM | 12 nM | 
COCCOc1ccc2ncnc(Nc3ccc(Oc4cccc5ccc(C)nc45)c(C)c3)c2c1 | 42 nM | 143 nM | 
O=C(Nc1ccc2ncnc(Nc3ccc(OCc4cccc(F)c4)c(Cl)c3)c2c1)c1ccc(CNCCO)cc1 | 12 nM |  | IC50 (BT-474 [4]): 200 nM; clearance [11]: ≤ 0.576 L/h/kg
C=CC(=O)N1CCC[C@@H](n2nc(-c3ccc(OCc4cccc(C)n4)cc3)c3c(N)ncnc32)C1 | 16.4 nM | 0.12 nM | 
C=CC(=O)N1CCN(c2ncc3ncnc(Nc4ccc(Oc5ccccc5)c(C)c4)c3n2)CC1 |  |  | IC50 [8]: 200 nM; IC50 (BaF3): 12 nM; IC50 [9]: 12 nM
COc1ccc2c(Nc3ccc(Oc4cccc5ccc(C)nc45)c(C)c3)ncnc2c1 | 239 nM | 166 nM | 
Cc1ccc2cccc(Oc3ccc(Nc4ncnc5ccc(NC(=O)C6CCCC6)cc45)cc3C)c2n1 | 314 nM | 2010 nM | 
C=CC(=O)N1CCN(c2ncc3ncnc(Nc4ccc(Oc5ccc6c(c5)ncn6C)c(C)c4)c3n2)CC1 |  |  | IC50 [8]: > 5 nM; IC50 (BaF3): 16 nM; IC50 [9]: 16 nM
Cc1cc(Nc2ncnc3cccc(OC4CCN(C)CC4)c23)ccc1Oc1ccn2ncnc2c1 |  |  | IC50 [7]: 18 nM
Cc1cc(Nc2ncnc3ccc(NC(=O)/C=C/[C@H]4CCCN4C)cc23)ccc1Oc1ccn2ncnc2c1 |  |  | IC50 (NCI-N87 [12]): 2.65 nM; half-life [13]: > 116 h; IC50 (BT-474 [14]): 2.4 nM
CCOc1cc2ncc(C#N)c(Nc3ccc(OCc4ccccn4)c(Cl)c3)c2cc1NC(=O)/C=C/[C@H]1CCCN1C [PYROTINIB] | 38 nM |  | 
Cc1cc(Nc2ncnc3ccc(NC4=NC(C)(C)CO4)cc23)ccc1Oc1ccn2ncnc2c1 [TUCATINIB] | 8 nM | > 500 nM | 
C=CC(=O)NC1CCN(c2ncc3ncnc(Nc4ccc(Oc5ccc6c(c5)ncn6C)c(C)c4)c3n2)CC1 [ZONGERTINIB] | 13 nM |  | 

Continued, in another order:

IC50 [1] | IC50 [5] | SMILES | further results
~2.3 nM |  | C=CC(=O)Nc1cccc(-c2c(-c3ccc(N4CCN(C)CC4)cc3)[nH]c3ncnc(Nc4ccc(OCc5ccccn5)c(Cl)c4)c23)c1 | 
6.07 nM |  | C=CC(=O)N1C[C@@H]2C[C@H]1CN2C(=O)Oc1cc2c(Nc3ccc(Cl)c(Cl)c3F)ncnc2cc1OC | 
2.21 nM | 7.04 nM | CCOc1cc2ncc(C#N)c(Nc3ccc(Oc4ccn5ncnc5c4)c(C)c3)c2cc1NC(=O)/C=C/CN(C)C | 
1.4 nM | 1.19 nM | Cc1cc(Nc2ncnc3ccc(NC(=O)/C=C/[C@H]4CCCN4C)cc23)ccc1Oc1cc2ncnn2cn1 | 
0.04 nM |  | COc1cc2c(Nc3ccc(Oc4ccn5ncnc5c4)c(C)c3)ncnc2cc1OCCCN1CCN(CCCCCCCNc2ccc3c(c2)C(=O)N(C2CCC(=O)NC2=O)C3=O)CC1 (centres undefined) | 
1.67 nM | 1.36 nM | CCOc1cc2ncnc(Nc3ccc(Oc4ccn5ncnc5c4)c(C)c3)c2cc1NC(=O)/C=C/[C@H]1CCCN1C | IC50 (BT-474 [4]): 2.13 nM; IC50 (NCI-N87 [10]): 1.12 nM
8 nM | 155 nM | Cc1ccc2cccc(Oc3ccc(Nc4ncnc5ccc(NC6CCCC6)cc45)cc3C)c2n1 | IC50 (SK-BR-3): 238 nM
1.69 nM |  | C=CC(=O)N1CCC(Oc2cc3c(Nc4ccc(Cl)c(Cl)c4F)ncnc3cc2OC)CC1 [POZIOTINIB] | 
3.51 nM | 8.13 nM | CCOc1cc2ncnc(Nc3ccc(Oc4ccn5ncnc5c4)c(C)c3)c2cc1NC(=O)/C(F)=C/[C@H]1CCCN1C [SPH-5030] | half-life [15]: 9.24 h; IC50 [16]: < 1 nM; IC50 (BT-474 [4]): 2.01 nM; IC50 [17]: < 1 nM; IC50 (NCI-N87 [10]): 1.09 nM
